Measurements published in patent US6906083B2 (dated 2005).

melting point	Structure (SMILES)
> 240 °C (dec.)	COc1cc2c(cc1OC)C(=O)C(F)(CC1CCNCC1)C2.Cl (stereo not drawn)
215 to 220 °C (dec.)	COc1cc2c(cc1OC)C(=O)C(F)(CC1CCN(C)CC1)C2.Cl (stereo not drawn)
220 to 225 °C (dec.)	COc1cc2c(cc1OC)C(=O)C(F)(CC1CCN(CC(C)C)CC1)C2.Cl (stereo not drawn)
